{"source": "ChEMBL document CHEMBL5335793", "about": "“PITB: A high affinity transthyretin aggregation inhibitor with optimal pharmacokinetic properties” (Eur J Med Chem, 2023)", "key": {"[1]": {"system": "Transthyretin (Homo sapiens), P02766 [V142I]", "experiment": "Binding affinity to TTR V122I mutant (unknown origin) expressed in Escherichia coli BL21(DE3) assessed as change in enthalpy at 100 uM by ITC analysis"}, "[2]": {"experiment": "Volume of distribution in CD-1 mouse at 10 mg/kg, po measured for 24 hrs by UPLC-MS/MS analysis", "type": "ADME, organism-based", "conditions": "in vivo"}, "[3]": {"system": "Transthyretin (Homo sapiens), P02766 [V50M]", "experiment": "Binding affinity to TTR V30M mutant (unknown origin) expressed in Escherichia coli BL21(DE3) assessed as change in enthalpy at 100 uM by ITC analysis"}, "[4]": {"system": "Transthyretin (Homo sapiens), P02766 [V50M]", "experiment": "Binding affinity to TTR V30M mutant (unknown origin) expressed in Escherichia coli BL21(DE3) assessed as change in entropy at 100 uM by ITC analysis"}, "[5]": {"experiment": "Tmax in CD-1 mouse at 10 mg/kg, po measured for 24 hrs by UPLC-MS/MS analysis", "type": "ADME, organism-based", "conditions": "in vivo"}, "[6]": {"experiment": "Half life in CD-1 mouse at 10 mg/kg, po measured for 24 hrs by UPLC-MS/MS analysis", "type": "ADME, organism-based", "conditions": "in vivo"}, "[7]": {"experiment": "Elimination rate constant in CD-1 mouse at 10 mg/kg, po measured for 24 hrs by UPLC-MS/MS analysis", "type": "ADME, organism-based", "conditions": "in vivo"}, "[8]": {"biological_target": "T1, Transthyretin (Homo sapiens, UniProt P02766)", "experiment": "Binding affinity to wild-type TTR (unknown origin) expressed in Escherichia coli BL21(DE3) assessed as change in enthalpy at 100 uM by ITC analysis"}, "[9]": {"experiment": "Clearance in CD-1 mouse at 10 mg/kg, po measured for 24 hrs by UPLC-MS/MS analysis", "type": "ADME, organism-based", "conditions": "in vivo"}, "[10]": {"biological_target": "T1, Transthyretin", "experiment": "Binding affinity to wild-type TTR (unknown origin) expressed in Escherichia coli BL21(DE3) assessed as change in entropy at 100 uM by ITC analysis"}, "[11]": {"experiment": "Cmax in CD-1 mouse at 10 mg/kg, po measured for 24 hrs by UPLC-MS/MS analysis", "type": "ADME, organism-based", "parameters": "dose 10 mg/kg, time 24 hrs, route po", "conditions": "in vivo"}, "[12]": {"experiment": "AUC (0 to 24 hrs) in CD-1 mouse at 10 mg/kg, po measured for 24 hrs by UPLC-MS/MS analysis", "type": "ADME, organism-based", "parameters": "time 24 hrs, dose 10 mg/kg, route po", "conditions": "in vivo"}, "[13]": {"system": "Transthyretin (Homo sapiens), P02766 [V142I]", "experiment": "Binding affinity to TTR V122I mutant (unknown origin) expressed in Escherichia coli BL21(DE3) assessed as change in entropy at 100 uM by ITC analysis"}, "[14]": {"system": "Transthyretin (Homo sapiens), P02766 [V50M]", "experiment": "Stabilization of TTR V30M mutant in human plasma assessed as degree of tetramer stability at 19.1 uM incubated overnight followed by urea addition measured after 5 hrs by isoelectric focusing based densitometry relative to control", "type": "cell-free"}}}
{"smiles": "Cc1ccc(C(=O)c2cc(O)c(O)c([N+](=O)[O-])c2)cc1", "note": "[TOLCAPONE]", "values": [{"measurement": "deltaH", "setting": "[1]", "value": -12.2, "unit": "kcal/mol"}, {"measurement": "Vd", "setting": "[2]", "value": 1.6, "unit": "L/kg"}, {"measurement": "deltaH", "setting": "[3]", "value": -13.8, "unit": "kcal/mol"}, {"measurement": "-TdeltaS", "setting": "[4]", "value": 5.1, "unit": "kcal/mol"}, {"measurement": "Tmax", "setting": "[5]", "value": "< 0.25", "unit": "h"}, {"measurement": "half-life", "setting": "[6]", "value": 1.4, "unit": "h"}, {"measurement": "k el at 24 h", "setting": "[7]", "value": 0.000139, "unit": "s⁻¹"}, {"measurement": "deltaH", "setting": "[8]", "value": -13.6, "unit": "kcal/mol"}, {"measurement": "CL/F", "setting": "[9]", "value": 13.3, "unit": "mL/min/kg"}, {"measurement": "-TdeltaS", "setting": "[10]", "value": 3.6, "unit": "kcal/mol"}, {"measurement": "Cmax", "setting": "[11]", "value": 7620, "unit": "ng/mL"}, {"measurement": "AUC(0-t) at 24 h", "setting": "[12]", "value": 11900, "unit": "ng·h/mL"}, {"measurement": "-TdeltaS", "setting": "[13]", "value": 2.2, "unit": "kcal/mol"}, {"measurement": "Activity", "setting": "[14]", "value": 4.9, "unit": "%"}]}
